In PMC3878228 (BMC Plant Biology, 2013):
Residue numbers refer to the chain shown, from its start. Entries after “also recorded” stand apart in the source; their conditions may differ.

Legend:
[1] = 200 μL medium with five pre-germinated Arabidopsis (Ler) seedlings; details: 22°C
[2] = 200 μL liquid medium with five pre-germinated Ler seedlings (half-strength Murashige and Skoog, 1% sucrose, MES); details: Arabidopsis thaliana (Ler), 22°C, up to 48 hrs
[3] = tested on: primary roots / root meristems (RMs) of Ler seedlings; experiment: In vitro root assay in Ler seedlings; type: in vivo, Arabidopsis; details: for Concentration at which the peptide was active in the root assay (primary root length): Ler seedlings, 8-d inoculation, tested at 10 nM, 30 nM, 100 nM, 1 μM
Protocol: (§1) Similarly, in vitro root assays were performed in Ler and clv2-1 (in Ler background) seedlings.
To evaluate activities of above-mentioned synthetic peptides with various N-terminal extensions, we performed in vitro root assays using Ler seedlings. The lengths of primary roots were measured after 8-d inoculations with either CLV3p12, L-CLV3p13, EEL-CLV3p15, HEEL-CLV3p16 or LHEEL-CLV3p17 at concentrations of 10 nM, 30 nM, 100 nM, or 1 μM (Figure 4).
(§2) Seeds of clv1-1, clv2-1 and clv3-2 (all in Ler background), Col-0 and Ler were gas-sterilized as reported previously, and imbibed in sterilized distilled water at 4°C in dark for 2 days before plating. In vitro root and SAM assays were performed as described.

CLV1 = details: tobacco BY-2 cells; cited from earlier work
Source text: (§3) CLV3 is one of the well-studied peptide hormones in plants. The CLV3 gene encodes a 96-AA secretory protein that functions in a feedback regulation loop to restrict the number of stem cells in SAMs by repressing the expression of the WUSCHEL (WUS) transcription factor [16, 21]. […] CLV3 sh ...

[4] = tested on: shoot and root meristems (RMs); details: synthetic peptides corresponding to the CLE motif; cited from earlier work
Source text: as §3

[5] = tested on: shoot apical meristems (SAMs) of clv3-2 seedlings; experiment: In vitro SAM assay in clv3-2 seedlings; type: in vivo, Arabidopsis; details: for Sizes of SAMs of clv3-2 seedlings after treatment: 1 μM fusion protein, 8 days, 8-d-old clv3-2 seedlings, n = 8, P < 0.01 Student's t-test
Protocol: (§4) In vitro activity assays of the TH-ProCLV3 fusion protein in SAMs were performed using clv3-2 and clv1-1 (both in Ler background) mutants of Arabidopsis, as described previously.
as §2

WUS expression = experiment: qRT-PCR of WUS expression in shoot apices of clv3-2 seedlings; type: in vivo, Arabidopsis; details: 8-d-old clv3-2 seedlings, 1 μM fusion protein in liquid medium, normalised to EIF4A1, 3 independent biological repeats
Protocol: To address if these fusion proteins are able to repress the WUS expression in SAMs, qRT-PCR analyses were performed with cDNAs from shoot apices after treatments with various fusion proteins. […] In contrast, the expression level of WUS in the TH-ProCLV3Leu69Ala-treated clv3-2 seedlings was only about 50% of the untreated ones (Figure 5F).
Total RNA was extracted using a Plant Total RNA Isolation Kit (TIANGEN, Beijing, China) from approximately 30 shoot apices excised from 8-d-old seedlings cultured in fusion protein-containing liquid media, and then reverse transcribed to cDNA with the First Strand cDNA Synthesis Kit ReverTra Ace-α (TOYOBO, Japan). qRT–PCR was performed in a Rotor-Gene 3000 thermocycler (Corbett, Australia) with the SYBR Premix ExTaq II kit (TaKaRa, Dalian, China), and the relative expression levels of the WUS [GenBank: NM_127349.3] were normalized against the internal control EIF4A1 [GenBank: NM_001084679.1] and calculated using the Rotor-Gene 6 software v 6.0 (Corbett, Australia) according to the 2^-∆∆CT method. Primer pairs of 5’-[…]-3’ and 5’-[…] -3’, and 5’-TTCTCTGCGACAATGCCTC-3’ and 5’-GCTTCCAGTCTTCTTTC TCCAC-3’ were used to amplify WUS and EIF4A1, respectively.

[6] = tested on: roots / root meristems (RMs) of clv2-1 seedlings; experiment: In vitro root assay in clv2-1 seedlings; type: in vivo, Arabidopsis; details: 1 μM TH-ProCLV3, 8-d-old clv2-1 seedlings, n = 8
Protocol: as §1, §2

[7] = tested on: shoot apical meristems (SAMs) of clv1-1 seedlings; experiment: In vitro SAM assay in clv1-1 seedlings; type: in vivo, Arabidopsis; details: 1 μM fusion protein, 8-d-old clv1-1 seedlings, n = 8
Protocol: as §4
The commonly known subtilase recognition site is Lys/Arg-Arg. Although in most CLE members of Arabidopsis the residue located before the conserved Arg of the 12-AA CLE motif is Lys (Additional file 3), for CLV3 the residue is Leu. We examined if a Leu69Lys substitution hampered the activity of the fusion protein. TH-ProCLV3Leu69Lys was produced in E. coli and applied to clv3-2 seedlings in vitro.
as §2

With LHEELRTVPSGPDPLHH the cleaved bond ([1]; up to 3 d) was “Leu69-Arg70, 3 d; also recorded: Arg70-Thr71, 3 d; also recorded: H-H81, first_seen, 2 d”.

For HEELRTVPSGPDPLHH, the cleaved bond ([1]; up to 3 d) was “Arg70-Thr71”.

With “Trx-His-HAHVQGLSNRKMMMMMKMESEWVGANGEAEKAKTKGLGLHEELRTVPSGPDPLHHHVNPPRQPRNNFQLP” the fragment found [2] was “RTVPSGPDPLHH (CLV3p12); also recorded: RTVPSGPDPLHHH (CLV3p13)”.

For “LHEELRTVPSGPDPLHH [LHEEL-CLV3p17, CLV3p12 with additional 5 N-terminal residues]”, the “Concentration at which the peptide was active in the root assay (primary root length)” value (“Concentration” below) ([3]; n = 8) was 10 nM.

For RLSPGGPDPRHH, the fragment found ([1]; up to 3 d) was “RLSPGGPDPRH; also recorded: RLSPGGPDPR; also recorded: LSPGGPDPRHH; also recorded: SPGGPDPRHH; also recorded: SPGGPDPR”.

With EELRTVPSGPDPLHH the cleaved bond ([1]; up to 3 d) was “H-H81”.

In the case of “RTVPSGPDPLHH [CLV3p12, chemically synthesized 12-AA CLV3 peptide corresponding to the CLE motif]”, the “Concentration” value ([3]; n = 8) is listed as 10 nM, the “Interaction with CLV1” value (CLV1) is listed as “Direct interaction” and the “Function in promoting stem cell differentiation in vitro” value [4] is listed as “functional in promoting stem cell differentiation in both shoot and root meristems”.

With “Trx-His-HAHVQGLSNRKMMMMMKMESEWVGANGEAEKAKTKGLGLHEEARTVPSGPDPLHHHVNPPRQPRNNFQLP” the fragment found [2] was “CLV3p12 (RTVPSGPDPLHH); also recorded: CLV3p13 (RTVPSGPDPLHHH)”.

With LHEEARTVPSGPDPLHH the cleaved bond ([1]; up to 3 d) was “H-H81”.

With “Trx-His-HAHVQGLSNRKMMMMKMESEWVGANGEAEKAKTKGLGLHEELRTVPSGPDPLHHHVNPPRQPRNNFQLP” the cleaved bond ([1]; up to 48 hrs) was “K38-Met39, major”.

In the case of “EELRTVPSGPDPLHH [EEL-CLV3p15, CLV3p12 with additional 3 N-terminal residues]”, the “Concentration” value ([3]; n = 8) is reported as 100 nM.

With FNESMRLSPGGPDPRHH the cleaved bond ([1]; up to 3 d) was “Met-Arg, 3 d” and the fragment found ([1]; up to 3 d) was “FNESMRLSPGGPDPRH; also recorded: FNESMRLSPGGPDPR; also recorded: FNESMRLSPGGPDP; also recorded: SMRLSPGGPDPR; also recorded: RLSPGGPDPR; also recorded: LSPGGPDPRHH; also recorded: SPGGPDPRHH; also recorded: SPGGPDPR”.

In the case of LRTVPSGPDPLHH, the cleaved bond ([1]; up to 3 d) is reported as “L69-R70; also recorded: R70-T71; also recorded: H-H81”.

For RTVPSGPDPLHH, the cleaved bond ([1]; up to 3 d) was “R70-T71; also recorded: H-H81”.

For “MRLSPGGPDPRHH [M-CLE1p13, synthesized CLE1 peptide with 1 N-terminal flanking residue]”, the “Fold less active than CLE1p12 in restricting the sizes of SAMs” value ([5]; clv3-2 seedlings, 8-d incubation, 10 nM to 10 μM peptide, n = 16) was “about 100 fold”.

In the case of “Trx-His-HAHVQGLSNRKMMMMMKMESEWVGANGEAEKAKTKGLGLHEEKRTVPSGPDPLHHHVNPPRQPRNNFQLP”, the fragment found [2] is reported as “MMMMKMESEWVGANGEAEKAKTKGLGLHEEK”.

B1: TH-ProCLV3: CLV3 proprotein without signal peptide, N-terminal Trx and His tags, produced in E. coli, 23.8 kD (protein, UniProt Q9XF04 22-96, looked up)
pro-form: SDLTQAHAHVQGLSNRKMMMMKMESEWVGANGEAEKAKTKGLGLHEELRTVPSGPDPLHHHVNPPRQPRNNFQLP
modifications: pro-form N-terminal thioredoxin and His tags
notes: CLV3 proprotein without signal peptide, N-terminal Trx and His tags, produced in E. coli, 23.8 kD
With B1 the “Expression level of WUS in shoot apices relative to non-treated clv3-2 seedlings” value (WUS expression) was “about 10%”, the “Root growth of clv2-1 seedlings” value [6] was “no evident growth inhibition” and the “Root growth of Ler seedlings” value ([3]; 1 μM TH-ProCLV3, 8-d-old Ler seedlings, n = 8) was “inhibited greatly”. For the same molecule, the “Root meristem (RM) state in Ler, microscopic examination” value ([3]; 1 μM TH-ProCLV3, Ler seedlings) was “termination of RMs in Ler”, the “Sizes of SAMs of clv1-1 seedlings after treatment” value (“Sizes of SAMs of clv1-1 seedlings” for short) [7] was “no evident reduction; also recorded: no significant differences” and the “Sizes of SAMs of clv3-2 seedlings after treatment” value (from here on “Sizes of SAMs of clv3-2 seedlings”) [5] was “significant reduced sizes of SAMs”.

B2: TH-ProCLV3Leu69Ala: TH-ProCLV3 fusion protein with Leu69Ala substitution, produced in E. coli (protein, UniProt Q9XF04 22-96, looked up, variant L69A)
pro-form: B1 pro-form with L48A
modifications: pro-form N-terminal thioredoxin and His tags
notes: TH-ProCLV3 fusion protein with Leu69Ala substitution, produced in E. coli
For B2, the “Expression level of WUS in shoot apices relative to non-treated clv3-2 seedlings” value (WUS expression) was “about 50%”, the “Sizes of SAMs of clv1-1 seedlings” value [7] was “no significant differences” and the “Sizes of SAMs of clv3-2 seedlings” value [5] was “significantly larger than those treated with TH-ProCLV3”.

B3: TH-ProCLV3Leu69Lys: TH-ProCLV3 fusion protein with Leu69Lys substitution, produced in E. coli (protein, UniProt Q9XF04 22-96, looked up, variant L69K)
pro-form: B1 pro-form with L48K
modifications: pro-form N-terminal thioredoxin and His tags
notes: TH-ProCLV3 fusion protein with Leu69Lys substitution, produced in E. coli
In the case of B3, the “Sizes of SAMs of clv1-1 seedlings” value [7] is reported as “no significant differences” and the “Sizes of SAMs of clv3-2 seedlings” value [5] is reported as “no significant difference”.
